Assay results published in ChEMBL document CHEMBL4507256 (2021).

Assays:
[1] = molecular target: Histamine H4 receptor (Homo sapiens) (UniProt Q9H3N8); settings: Compound concentration 10.0 uM
[2] = tested on: ALK tyrosine kinase receptor (Homo sapiens), Q9UM73 [C1156Y]; settings: Compound concentration 1000.0 nM
[3] = molecular target: Histamine H1 receptor (Homo sapiens) (UniProt P35367); settings: Compound concentration 10.0 uM
[4] = molecular target: Serine/threonine-protein kinase TBK1 (Homo sapiens) (UniProt Q9UHD2); settings: Compound concentration 1000.0 nM
[5] = molecular target: Tyrosine-protein kinase ABL2 (Homo sapiens) (UniProt P42684); settings: Compound concentration 1000.0 nM
[6] = molecular target: SRSF protein kinase 2 (Homo sapiens) (UniProt P78362); settings: Compound concentration 1000.0 nM
[7] = molecular target: Cyclin-dependent kinase 4 (Homo sapiens) (UniProt P11802); settings: Compound concentration 1000.0 nM
Cyclin-dependent kinase 4 (Homo sapiens), sequence (P11802 whole entry): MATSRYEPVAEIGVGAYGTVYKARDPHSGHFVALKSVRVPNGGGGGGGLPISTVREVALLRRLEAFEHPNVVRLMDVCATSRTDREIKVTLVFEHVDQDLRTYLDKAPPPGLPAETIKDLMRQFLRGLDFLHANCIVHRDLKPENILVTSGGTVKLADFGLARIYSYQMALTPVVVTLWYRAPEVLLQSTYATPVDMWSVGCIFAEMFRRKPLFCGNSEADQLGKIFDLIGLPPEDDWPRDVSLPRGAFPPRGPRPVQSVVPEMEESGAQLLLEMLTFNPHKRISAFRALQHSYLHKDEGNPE

[8] = molecular target: Serine/threonine-protein kinase TAO2 (Homo sapiens) (UniProt Q9UL54); settings: Compound concentration 1000.0 nM
[9] = molecular target: Serine/threonine-protein kinase WNK1 (Homo sapiens) (UniProt Q9H4A3); settings: Compound concentration 1000.0 nM
[10] = molecular target: Casein kinase I isoform gamma-2 (Homo sapiens) (UniProt P78368); settings: Compound concentration 1000.0 nM
[11] = molecular target: Ribosomal protein S6 kinase alpha-4 (Homo sapiens) (UniProt O75676); settings: Compound concentration 1000.0 nM
[12] = tested on: Tyrosine-protein kinase ABL1 (Homo sapiens), P00519 [T315I]; settings: Compound concentration 1000.0 nM
[13] = molecular target: Tyrosine-protein kinase JAK2 (Homo sapiens) (UniProt O60674); settings: Compound concentration 1000.0 nM
[14] = molecular target: MAP/microtubule affinity-regulating kinase 4 (Homo sapiens) (UniProt Q96L34); settings: Compound concentration 1000.0 nM
[15] = molecular target: Serine/threonine-protein kinase ULK1 (Homo sapiens) (UniProt O75385); settings: Compound concentration 1000.0 nM
[16] = tested on: Receptor-type tyrosine-protein kinase FLT3 (Homo sapiens), P36888 [UNDEFINED MUTATION]; settings: Compound concentration 1000.0 nM
[17] = molecular target: cAMP-dependent protein kinase catalytic subunit alpha (Homo sapiens) (UniProt P17612); settings: Compound concentration 1000.0 nM
[18] = molecular target: Tyrosine-protein kinase JAK1 (Homo sapiens) (UniProt P23458); settings: Compound concentration 1000.0 nM
[19] = molecular target: Dual specificity mitogen-activated protein kinase kinase 4 (Homo sapiens) (UniProt P45985); settings: Compound concentration 1000.0 nM
[20] = molecular target: Interleukin-1 receptor-associated kinase 3 (Homo sapiens) (UniProt Q9Y616); settings: Compound concentration 1000.0 nM
[21] = molecular target: Beta-2 adrenergic receptor (Homo sapiens) (UniProt P07550); settings: Compound concentration 10.0 uM
[22] = molecular target: RAF proto-oncogene serine/threonine-protein kinase (Homo sapiens) (UniProt P04049); settings: Compound concentration 1000.0 nM
[23] = molecular target: Cyclin-dependent kinase 13 (Homo sapiens) (UniProt Q14004); settings: Compound concentration 1000.0 nM
[24] = molecular target: Mitogen-activated protein kinase kinase kinase kinase 1 (Homo sapiens) (UniProt Q92918); settings: Compound concentration 1000.0 nM
[25] = molecular target: Serine/threonine-protein kinase N2 (Homo sapiens) (UniProt Q16513); settings: Compound concentration 1000.0 nM
[26] = molecular target: Serine/threonine-protein kinase Nek9 (Homo sapiens) (UniProt Q8TD19); settings: Compound concentration 1000.0 nM
[27] = molecular target: Tyrosine-protein kinase ABL1 (Homo sapiens) (UniProt P00519); settings: Compound concentration 1000.0 nM
[28] = molecular target: Mitogen-activated protein kinase kinase kinase 20 (Homo sapiens) (UniProt Q9NYL2); settings: Compound concentration 1000.0 nM
[29] = molecular target: Megakaryocyte-associated tyrosine-protein kinase (Homo sapiens) (UniProt P42679); settings: Compound concentration 1000.0 nM
[30] = molecular target: Platelet-derived growth factor receptor beta (Homo sapiens) (UniProt P09619); settings: Compound concentration 1000.0 nM
[31] = molecular target: Phosphatidylinositol 4-phosphate 3-kinase C2 domain-containing subunit beta (Homo sapiens) (UniProt O00750); settings: Compound concentration 1000.0 nM
[32] = molecular target: Muscarinic acetylcholine receptor M3 (Homo sapiens) (UniProt P20309); settings: Compound concentration 10.0 uM
[33] = molecular target: Myosin light chain kinase 2, skeletal/cardiac muscle (Homo sapiens) (UniProt Q9H1R3); settings: Compound concentration 1000.0 nM
[34] = molecular target: Transient receptor potential cation channel subfamily M member 6 (Homo sapiens) (UniProt Q9BX84); settings: Compound concentration 1000.0 nM
Transient receptor potential cation channel subfamily M member 6 (Homo sapiens), sequence (Q9BX84 whole entry): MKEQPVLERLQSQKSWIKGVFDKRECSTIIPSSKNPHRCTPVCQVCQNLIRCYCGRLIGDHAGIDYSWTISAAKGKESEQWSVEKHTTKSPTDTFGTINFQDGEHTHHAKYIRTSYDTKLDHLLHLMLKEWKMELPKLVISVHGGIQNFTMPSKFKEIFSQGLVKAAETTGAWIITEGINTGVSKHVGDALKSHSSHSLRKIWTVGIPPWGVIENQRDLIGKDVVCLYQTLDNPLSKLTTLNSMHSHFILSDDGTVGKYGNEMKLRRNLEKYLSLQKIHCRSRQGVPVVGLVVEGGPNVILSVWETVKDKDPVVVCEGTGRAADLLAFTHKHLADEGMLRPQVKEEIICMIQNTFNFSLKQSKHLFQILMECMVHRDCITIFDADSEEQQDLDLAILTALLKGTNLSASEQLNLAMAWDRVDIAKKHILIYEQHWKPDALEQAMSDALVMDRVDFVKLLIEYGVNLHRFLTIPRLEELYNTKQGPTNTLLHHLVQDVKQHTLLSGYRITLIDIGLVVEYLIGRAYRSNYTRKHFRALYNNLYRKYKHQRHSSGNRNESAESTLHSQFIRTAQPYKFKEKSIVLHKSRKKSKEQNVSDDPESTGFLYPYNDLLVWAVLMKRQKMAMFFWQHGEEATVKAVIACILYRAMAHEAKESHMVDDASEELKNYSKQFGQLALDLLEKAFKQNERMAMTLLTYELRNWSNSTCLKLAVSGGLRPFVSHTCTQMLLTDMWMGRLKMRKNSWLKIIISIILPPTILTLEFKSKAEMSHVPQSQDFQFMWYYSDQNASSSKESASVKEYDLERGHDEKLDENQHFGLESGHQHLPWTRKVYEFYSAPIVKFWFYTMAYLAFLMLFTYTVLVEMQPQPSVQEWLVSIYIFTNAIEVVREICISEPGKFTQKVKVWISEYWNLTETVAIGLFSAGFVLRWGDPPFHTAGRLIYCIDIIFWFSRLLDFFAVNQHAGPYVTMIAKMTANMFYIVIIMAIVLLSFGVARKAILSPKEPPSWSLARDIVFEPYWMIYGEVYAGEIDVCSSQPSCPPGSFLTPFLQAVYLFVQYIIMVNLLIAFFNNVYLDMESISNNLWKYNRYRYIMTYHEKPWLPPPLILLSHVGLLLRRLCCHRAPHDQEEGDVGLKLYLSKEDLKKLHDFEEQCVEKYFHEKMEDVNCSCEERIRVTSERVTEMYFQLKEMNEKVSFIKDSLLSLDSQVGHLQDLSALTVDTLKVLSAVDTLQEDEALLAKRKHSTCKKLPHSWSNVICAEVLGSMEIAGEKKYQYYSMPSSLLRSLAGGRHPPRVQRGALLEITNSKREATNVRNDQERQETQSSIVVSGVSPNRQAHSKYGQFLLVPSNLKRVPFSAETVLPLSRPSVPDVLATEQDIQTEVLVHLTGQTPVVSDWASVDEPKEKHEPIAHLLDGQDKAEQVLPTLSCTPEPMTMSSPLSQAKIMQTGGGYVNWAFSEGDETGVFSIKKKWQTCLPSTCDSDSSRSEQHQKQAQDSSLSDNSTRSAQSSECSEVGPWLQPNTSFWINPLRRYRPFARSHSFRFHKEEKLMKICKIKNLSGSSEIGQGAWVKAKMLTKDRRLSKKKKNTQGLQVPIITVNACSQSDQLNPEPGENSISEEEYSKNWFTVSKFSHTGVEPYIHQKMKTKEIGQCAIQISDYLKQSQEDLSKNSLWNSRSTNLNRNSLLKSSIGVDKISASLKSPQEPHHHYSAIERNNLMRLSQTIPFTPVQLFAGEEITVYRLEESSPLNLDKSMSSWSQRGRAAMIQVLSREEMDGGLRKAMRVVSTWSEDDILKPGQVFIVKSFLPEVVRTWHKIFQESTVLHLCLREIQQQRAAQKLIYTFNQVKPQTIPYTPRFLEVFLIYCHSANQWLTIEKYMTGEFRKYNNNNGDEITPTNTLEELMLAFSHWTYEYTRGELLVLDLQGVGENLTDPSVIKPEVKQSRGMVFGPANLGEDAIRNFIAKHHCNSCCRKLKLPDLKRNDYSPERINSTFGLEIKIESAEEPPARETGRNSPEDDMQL

[35] = molecular target: Ephrin type-B receptor 2 (Homo sapiens) (UniProt P29323); settings: Compound concentration 1000.0 nM
Ephrin type-B receptor 2 (Homo sapiens), sequence (P29323 whole entry): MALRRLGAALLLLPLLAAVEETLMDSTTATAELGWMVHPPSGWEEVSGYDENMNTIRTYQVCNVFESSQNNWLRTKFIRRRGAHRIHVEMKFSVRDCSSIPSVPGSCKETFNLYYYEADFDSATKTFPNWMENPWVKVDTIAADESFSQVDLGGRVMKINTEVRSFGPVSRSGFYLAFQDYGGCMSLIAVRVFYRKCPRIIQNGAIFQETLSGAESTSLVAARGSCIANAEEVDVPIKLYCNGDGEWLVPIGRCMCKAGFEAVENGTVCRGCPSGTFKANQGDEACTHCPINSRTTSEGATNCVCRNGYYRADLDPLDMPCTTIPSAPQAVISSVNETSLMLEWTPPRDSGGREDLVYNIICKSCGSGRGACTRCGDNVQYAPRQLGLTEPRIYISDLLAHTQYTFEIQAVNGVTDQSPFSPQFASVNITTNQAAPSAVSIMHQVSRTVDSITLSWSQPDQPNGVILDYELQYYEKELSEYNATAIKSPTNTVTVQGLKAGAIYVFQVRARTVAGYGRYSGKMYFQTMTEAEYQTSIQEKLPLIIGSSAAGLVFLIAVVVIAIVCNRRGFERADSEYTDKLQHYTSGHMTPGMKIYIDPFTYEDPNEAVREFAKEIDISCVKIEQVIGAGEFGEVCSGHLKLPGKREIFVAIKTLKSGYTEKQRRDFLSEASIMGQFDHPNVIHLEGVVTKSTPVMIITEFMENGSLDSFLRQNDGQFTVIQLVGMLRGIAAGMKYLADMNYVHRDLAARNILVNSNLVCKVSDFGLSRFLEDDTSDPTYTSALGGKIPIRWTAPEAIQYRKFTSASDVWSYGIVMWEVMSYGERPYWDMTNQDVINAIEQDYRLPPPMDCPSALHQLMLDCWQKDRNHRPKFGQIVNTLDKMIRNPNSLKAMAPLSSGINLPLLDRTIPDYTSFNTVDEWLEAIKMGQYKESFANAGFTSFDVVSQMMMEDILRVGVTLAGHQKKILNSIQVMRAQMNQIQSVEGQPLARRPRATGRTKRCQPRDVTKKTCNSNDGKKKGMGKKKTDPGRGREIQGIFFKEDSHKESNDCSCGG

[36] = molecular target: Proto-oncogene tyrosine-protein kinase Src (Homo sapiens) (UniProt P12931); settings: Compound concentration 1000.0 nM
[37] = molecular target: Ephrin type-A receptor 3 (Homo sapiens) (UniProt P29320); settings: Compound concentration 1000.0 nM
[38] = molecular target: Non-receptor tyrosine-protein kinase TYK2 (Homo sapiens) (UniProt P29597); settings: Compound concentration 1000.0 nM
[39] = molecular target: Protein kinase C theta type (Homo sapiens) (UniProt Q04759); settings: Compound concentration 1000.0 nM
Protein kinase C theta type (Homo sapiens), sequence (Q04759 whole entry, looked up): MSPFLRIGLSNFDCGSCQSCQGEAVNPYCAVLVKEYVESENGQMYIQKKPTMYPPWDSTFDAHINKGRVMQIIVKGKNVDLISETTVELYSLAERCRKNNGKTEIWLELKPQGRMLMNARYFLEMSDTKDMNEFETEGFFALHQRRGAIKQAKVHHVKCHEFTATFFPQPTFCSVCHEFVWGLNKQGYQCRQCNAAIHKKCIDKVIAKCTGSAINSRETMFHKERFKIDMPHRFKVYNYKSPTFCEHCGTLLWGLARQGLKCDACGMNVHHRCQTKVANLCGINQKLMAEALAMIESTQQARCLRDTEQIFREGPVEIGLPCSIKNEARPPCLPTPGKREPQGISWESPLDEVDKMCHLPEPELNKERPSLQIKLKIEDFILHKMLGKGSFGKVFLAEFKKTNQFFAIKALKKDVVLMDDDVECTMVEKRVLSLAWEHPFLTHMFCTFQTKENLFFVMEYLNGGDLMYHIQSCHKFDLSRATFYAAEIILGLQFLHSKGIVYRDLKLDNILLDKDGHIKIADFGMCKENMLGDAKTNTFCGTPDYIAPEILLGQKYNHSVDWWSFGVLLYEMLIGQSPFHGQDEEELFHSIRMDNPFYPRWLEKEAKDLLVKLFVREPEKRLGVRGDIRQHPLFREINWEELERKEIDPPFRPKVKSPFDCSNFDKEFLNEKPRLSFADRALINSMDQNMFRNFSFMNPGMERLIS

[40] = molecular target: Sigma non-opioid intracellular receptor 1 (Homo sapiens, UniProt Q99720); settings: Compound concentration 10.0 uM
[41] = molecular target: Calcium/calmodulin-dependent protein kinase type II subunit alpha (Homo sapiens) (UniProt Q9UQM7); settings: Compound concentration 1000.0 nM
Calcium/calmodulin-dependent protein kinase type II subunit alpha (Homo sapiens), sequence (Q9UQM7 whole entry): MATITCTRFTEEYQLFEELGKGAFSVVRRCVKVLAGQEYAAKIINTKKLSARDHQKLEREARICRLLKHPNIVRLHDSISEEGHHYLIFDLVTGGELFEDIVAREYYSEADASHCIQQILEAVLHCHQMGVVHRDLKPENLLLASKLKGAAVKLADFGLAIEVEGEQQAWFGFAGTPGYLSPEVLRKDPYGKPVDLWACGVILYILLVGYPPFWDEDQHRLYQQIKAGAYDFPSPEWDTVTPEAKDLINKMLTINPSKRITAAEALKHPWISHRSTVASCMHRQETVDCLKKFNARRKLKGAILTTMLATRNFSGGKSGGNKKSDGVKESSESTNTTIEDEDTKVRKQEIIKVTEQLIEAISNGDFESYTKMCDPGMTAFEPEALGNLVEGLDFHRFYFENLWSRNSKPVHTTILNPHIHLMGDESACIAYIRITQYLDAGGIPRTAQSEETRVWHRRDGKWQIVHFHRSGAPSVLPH

[42] = molecular target: D(1B) dopamine receptor (Homo sapiens) (UniProt P21918); settings: Compound concentration 10.0 uM
[43] = molecular target: Alpha-2A adrenergic receptor (Homo sapiens) (UniProt P08913); settings: Compound concentration 10.0 uM
Alpha-2A adrenergic receptor (Homo sapiens), sequence (P08913 whole entry): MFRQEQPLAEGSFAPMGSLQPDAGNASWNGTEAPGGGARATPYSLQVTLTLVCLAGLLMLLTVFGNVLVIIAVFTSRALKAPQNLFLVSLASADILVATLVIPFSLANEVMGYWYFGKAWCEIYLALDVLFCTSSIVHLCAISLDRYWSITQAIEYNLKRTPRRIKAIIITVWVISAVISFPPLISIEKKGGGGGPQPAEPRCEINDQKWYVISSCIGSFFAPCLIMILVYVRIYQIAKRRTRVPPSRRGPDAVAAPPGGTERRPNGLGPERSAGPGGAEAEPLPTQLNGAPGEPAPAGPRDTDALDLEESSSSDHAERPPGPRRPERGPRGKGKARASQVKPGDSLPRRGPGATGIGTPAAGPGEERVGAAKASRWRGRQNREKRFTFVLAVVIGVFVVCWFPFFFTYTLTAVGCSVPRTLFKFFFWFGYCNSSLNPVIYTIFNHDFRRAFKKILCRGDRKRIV

[44] = molecular target: Myosin light chain kinase, smooth muscle (Homo sapiens) (UniProt Q15746); settings: Compound concentration 1000.0 nM
[45] = molecular target: Phosphatidylinositol 4-phosphate 5-kinase type-1 alpha (Homo sapiens) (UniProt Q99755); settings: Compound concentration 1000.0 nM

`CCC(=N\O)/C(C)=C/c1ccc(F)c(C)c1` [A-226] gave an inhibition [1] of 10.8%, a residual activity [2] of 100% and an inhibition [3] of 15.2%. It also gave a residual activity [4] of 93%, a residual activity [5] of 92% and a residual activity [6] of 97%. It also gave a residual activity [7] of 100%, a residual activity [8] of 100% and a residual activity [9] of 100%. The residual activity [10] was 100%, the residual activity [11] was 91% and the residual activity [12] was 100%. For the same molecule, the residual activity [13] was 100%, the residual activity [14] was 88% and the residual activity [15] was 96%. It also gave a residual activity [16] of 97%, a residual activity [17] of 100% and a residual activity [18] of 100%. The residual activity [19] was 100%, the residual activity [20] was 94% and the inhibition [21] was -1.29%. It also gave a residual activity [22] of 99%, a residual activity [23] of 100% and a residual activity [24] of 100%. For the same molecule, the residual activity [25] was 100%, the residual activity [26] was 100% and the residual activity [27] was 100%. For the same molecule, the residual activity [28] was 76%, the residual activity [29] was 100% and the residual activity [30] was 86%. The residual activity [31] was 55%, the inhibition [32] was -5.75% and the residual activity [33] was 78%. It also gave a residual activity [34] of 100%, a residual activity [35] of 99% and a residual activity [36] of 98%. For the same molecule, the residual activity [37] was 99%, the residual activity [38] was 100% and the residual activity [39] was 88%. For the same molecule, the inhibition [40] was 86.8%, the residual activity [41] was 100% and the inhibition [42] was 11.8%. The inhibition [43] was 2.82%, the residual activity [44] was 93% and the residual activity [45] was 100%.

Molecule `CCC(=N\O)/C(C)=C/c1ccc(F)cc1` [A-079] has an inhibition [1] of 9.43%, a residual activity [2] of 77% and an inhibition [3] of 9.24%. The residual activity [4] was 75%, the residual activity [5] was 82% and the residual activity [6] was 75%. For the same molecule, the residual activity [7] was 100%, the residual activity [8] was 94% and the residual activity [9] was 83%. The residual activity [10] was 87%, the residual activity [11] was 81% and the residual activity [12] was 75%. It also gave a residual activity [13] of 71%, a residual activity [14] of 100% and a residual activity [15] of 85%. For the same molecule, the residual activity [16] was 76%, the residual activity [17] was 78% and the residual activity [18] was 96%. For the same molecule, the residual activity [19] was 75%, the residual activity [20] was 100% and the inhibition [21] was 6.61%. It also gave a residual activity [22] of 91%, a residual activity [23] of 95% and a residual activity [24] of 92%. The residual activity [25] was 80%, the residual activity [26] was 79% and the residual activity [27] was 83%. For the same molecule, the residual activity [28] was 84%, the residual activity [29] was 72% and the residual activity [30] was 100%. The residual activity [31] was 92%, the inhibition [32] was -6.83% and the residual activity [33] was 81%. It also gave a residual activity [34] of 64%, a residual activity [35] of 76% and a residual activity [36] of 91%. It also gave a residual activity [37] of 100%, a residual activity [38] of 72% and a residual activity [39] of 80%. For the same molecule, the inhibition [40] was 84%, the residual activity [41] was 81% and the inhibition [42] was 12.2%. The inhibition [43] was 5.31%, the residual activity [44] was 100% and the residual activity [45] was 97%.
